# Assay results published in US10710978B2, “STK4 inhibitors for treatment of hematologic malignancies” (Dana-Farber Cancer Institute, Inc., priority 2015, dated 2020).
# Read-outs that look alike come from different tables or passages of the source.
# Assays:
# Test in all cases: KiNativ assay
# Type in all cases: binding
# MAP2K1, MAP2K2 = details: 10 μM, H929 live cell; range class
# Method: (§1) Biochemical IC50s of the compounds of the present disclosure against various kinases were measured in a KiNativ assay. Compounds were screened in duplicate at 10 μM in H929 live cell. IC50 was measured via Mass spectroscopy (MS).
# ZAK = ZAK (Homo sapiens (Human), UniProt Q9NYL2); details: H929 live cell
# Method: as §1
# KHS1 = KHS1 (Homo sapiens (Human), UniProt Q9Y4K4); details: H929 live cell
# Method: as §1
# SMG1 = SMG1 (Homo sapiens (Human), UniProt Q96Q15); details: H929 live cell
# Method: as §1
# AKT1 = AKT1 (Homo sapiens (Human), UniProt P31749); details: H929 live cell
# Chain of AKT1 (P31749 whole entry): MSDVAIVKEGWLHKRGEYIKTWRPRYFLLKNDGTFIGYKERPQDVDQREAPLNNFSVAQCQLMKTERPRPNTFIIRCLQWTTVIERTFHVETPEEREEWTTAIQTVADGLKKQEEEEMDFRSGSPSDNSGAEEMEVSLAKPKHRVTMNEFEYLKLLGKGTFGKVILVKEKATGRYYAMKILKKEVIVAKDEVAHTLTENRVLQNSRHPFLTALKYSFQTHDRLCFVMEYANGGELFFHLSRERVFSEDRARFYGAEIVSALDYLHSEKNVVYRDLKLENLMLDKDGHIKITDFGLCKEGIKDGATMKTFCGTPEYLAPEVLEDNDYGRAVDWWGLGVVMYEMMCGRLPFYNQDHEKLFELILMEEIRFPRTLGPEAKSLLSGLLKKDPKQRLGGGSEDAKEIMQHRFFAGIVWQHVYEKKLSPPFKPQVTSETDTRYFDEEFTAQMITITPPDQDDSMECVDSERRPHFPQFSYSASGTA
# Method: as §1
# JAK1 domain1 = JAK1 domain1 (Homo sapiens (Human), UniProt P23458); details: H929 live cell
# Method: as §1
# IRAK1 = IRAK1 (Homo sapiens (Human), UniProt P51617); details: H929 live cell
# Method: as §1
# MST1 = MST1 (Homo sapiens (Human), UniProt Q13043); details: H929 live cell
# Method: as §1
# IRE1 = IRE1 (Homo sapiens (Human), UniProt O75460); details: H929 live cell
# Method: as §1
# JAK1 domain2 = JAK1 domain2 (Homo sapiens (Human), UniProt P23458); details: H929 live cell
# Method: as §1
# MST1, MST2 = details: H929 live cell; for % inhibition: 10 μM, range class
# Method: as §1
# JNK1, JNK2, JNK3 = details: H929 live cell; for % inhibition: 10 μM, range class
# Method: as §1
# ULK1 = ULK1 (Homo sapiens (Human), UniProt O75385); details: H929 live cell
# Chain of ULK1 (O75385 whole entry): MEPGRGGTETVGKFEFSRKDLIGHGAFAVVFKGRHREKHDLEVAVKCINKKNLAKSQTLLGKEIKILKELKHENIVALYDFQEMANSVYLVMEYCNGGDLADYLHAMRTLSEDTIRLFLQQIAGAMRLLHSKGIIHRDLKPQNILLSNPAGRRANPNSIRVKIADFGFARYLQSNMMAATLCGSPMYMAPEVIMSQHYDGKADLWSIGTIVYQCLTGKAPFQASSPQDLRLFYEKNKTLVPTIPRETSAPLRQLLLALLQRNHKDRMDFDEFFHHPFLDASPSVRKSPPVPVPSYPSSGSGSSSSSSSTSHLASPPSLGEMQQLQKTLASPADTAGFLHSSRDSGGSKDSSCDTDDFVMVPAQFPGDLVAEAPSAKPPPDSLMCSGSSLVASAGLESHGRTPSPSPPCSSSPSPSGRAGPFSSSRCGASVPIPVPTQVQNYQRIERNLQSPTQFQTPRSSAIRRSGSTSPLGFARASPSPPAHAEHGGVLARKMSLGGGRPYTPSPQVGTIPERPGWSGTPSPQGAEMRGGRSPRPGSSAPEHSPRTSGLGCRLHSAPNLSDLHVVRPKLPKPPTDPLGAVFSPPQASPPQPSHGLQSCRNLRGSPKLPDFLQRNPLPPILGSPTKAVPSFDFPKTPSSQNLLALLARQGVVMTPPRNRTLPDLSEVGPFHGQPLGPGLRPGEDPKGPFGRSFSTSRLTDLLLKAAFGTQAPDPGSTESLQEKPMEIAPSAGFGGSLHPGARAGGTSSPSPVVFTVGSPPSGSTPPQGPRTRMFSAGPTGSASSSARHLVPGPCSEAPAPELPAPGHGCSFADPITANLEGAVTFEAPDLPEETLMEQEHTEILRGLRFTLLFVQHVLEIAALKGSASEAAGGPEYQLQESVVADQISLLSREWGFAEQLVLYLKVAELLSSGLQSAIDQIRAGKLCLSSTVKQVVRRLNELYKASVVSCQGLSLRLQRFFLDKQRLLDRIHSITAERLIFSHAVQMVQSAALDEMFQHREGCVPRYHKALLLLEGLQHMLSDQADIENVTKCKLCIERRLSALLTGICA
# Method: as §1
# RSK2 domain1 = RSK2 domain1 (Homo sapiens (Human), UniProt P51812); details: H929 live cell
# Method: as §1
# PITSLRE = details: H929 live cell; for % inhibition: 10 μM, range class
# Method: as §1
# GCK = GCK (Homo sapiens (Human), UniProt Q12851); details: H929 live cell
# Chain of GCK (Q12851 whole entry): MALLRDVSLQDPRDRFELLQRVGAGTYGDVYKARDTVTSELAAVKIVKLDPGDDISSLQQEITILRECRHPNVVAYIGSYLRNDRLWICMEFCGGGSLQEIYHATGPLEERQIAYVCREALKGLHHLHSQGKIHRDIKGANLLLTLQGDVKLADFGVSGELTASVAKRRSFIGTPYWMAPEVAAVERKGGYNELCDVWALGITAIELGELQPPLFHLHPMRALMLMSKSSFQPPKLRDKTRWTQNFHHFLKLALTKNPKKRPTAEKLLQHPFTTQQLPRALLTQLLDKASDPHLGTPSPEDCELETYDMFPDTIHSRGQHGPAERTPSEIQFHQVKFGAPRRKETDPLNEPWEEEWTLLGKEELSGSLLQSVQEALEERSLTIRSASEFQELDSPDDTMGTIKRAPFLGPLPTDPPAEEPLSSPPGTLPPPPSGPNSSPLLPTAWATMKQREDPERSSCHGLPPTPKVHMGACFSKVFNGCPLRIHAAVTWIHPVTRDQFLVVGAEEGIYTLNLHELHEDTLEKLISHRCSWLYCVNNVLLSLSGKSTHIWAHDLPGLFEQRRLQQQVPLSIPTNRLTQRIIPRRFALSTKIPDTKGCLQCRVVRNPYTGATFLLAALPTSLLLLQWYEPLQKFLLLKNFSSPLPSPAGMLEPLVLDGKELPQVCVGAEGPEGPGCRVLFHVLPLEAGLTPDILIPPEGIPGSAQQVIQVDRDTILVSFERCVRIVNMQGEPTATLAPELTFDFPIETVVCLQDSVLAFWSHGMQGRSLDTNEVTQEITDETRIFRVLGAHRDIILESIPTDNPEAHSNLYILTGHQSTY
# Method: as §1
# Wnk1, Wnk2, Wnk3 = details: H929 live cell; for % inhibition: 10 μM, range class
# Method: as §1
# ACK = ACK (Homo sapiens (Human), UniProt Q07912); details: H929 live cell
# Method: as §1
# NEK6, NEK7 = details: H929 live cell; for % inhibition: 10 μM, range class
# Method: as §1
# MAP3K1 = MAP3K1 (Homo sapiens (Human), UniProt Q13233); details: H929 live cell
# Method: as §1
# STLK6 = STLK6 (Homo sapiens (Human), UniProt Q9C0K7); details: H929 live cell
# Chain of STLK6 (Q9C0K7 whole entry): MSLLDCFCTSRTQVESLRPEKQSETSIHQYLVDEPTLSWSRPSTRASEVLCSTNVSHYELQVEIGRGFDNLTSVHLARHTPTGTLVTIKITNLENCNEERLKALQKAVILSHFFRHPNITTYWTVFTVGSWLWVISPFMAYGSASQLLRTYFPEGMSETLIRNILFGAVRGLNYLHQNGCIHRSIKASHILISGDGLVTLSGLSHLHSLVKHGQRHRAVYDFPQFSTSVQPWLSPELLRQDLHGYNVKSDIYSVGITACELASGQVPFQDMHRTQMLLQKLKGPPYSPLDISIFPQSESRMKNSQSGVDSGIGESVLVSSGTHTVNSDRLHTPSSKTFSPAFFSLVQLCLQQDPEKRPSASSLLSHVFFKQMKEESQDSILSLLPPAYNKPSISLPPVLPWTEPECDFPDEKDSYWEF
# Method: as §1
# MARK4 = MARK4 (Homo sapiens (Human), UniProt Q96L34); details: H929 live cell
# Method: as §1
# SRPK2 = SRPK2 (Homo sapiens (Human), UniProt P78362); details: H929 live cell
# Method: as §1
# p70S6K = p70S6K (Homo sapiens (Human), UniProt P23443); details: H929 live cell
# Method: as §1
# MAP3K5 = MAP3K5 (Homo sapiens (Human), UniProt Q99683); details: H929 live cell
# Method: as §1
# p70S6Kb = p70S6Kb (Homo sapiens (Human), UniProt Q9UBS0); details: H929 live cell
# Method: as §1
# PRPK = PRPK (Homo sapiens (Human), UniProt Q96S44); details: H929 live cell
# Chain of PRPK (Q96S44 whole entry): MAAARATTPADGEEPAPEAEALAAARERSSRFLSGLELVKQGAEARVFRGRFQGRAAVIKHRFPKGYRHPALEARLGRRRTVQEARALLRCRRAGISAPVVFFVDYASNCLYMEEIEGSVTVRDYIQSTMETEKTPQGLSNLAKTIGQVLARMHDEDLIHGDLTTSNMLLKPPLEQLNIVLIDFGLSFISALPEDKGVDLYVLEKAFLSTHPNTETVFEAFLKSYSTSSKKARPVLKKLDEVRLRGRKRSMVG
# Method: as §1
# MAP2K4 = MAP2K4 (Homo sapiens (Human), UniProt P45985); details: H929 live cell
# Chain of MAP2K4 (P45985 whole entry): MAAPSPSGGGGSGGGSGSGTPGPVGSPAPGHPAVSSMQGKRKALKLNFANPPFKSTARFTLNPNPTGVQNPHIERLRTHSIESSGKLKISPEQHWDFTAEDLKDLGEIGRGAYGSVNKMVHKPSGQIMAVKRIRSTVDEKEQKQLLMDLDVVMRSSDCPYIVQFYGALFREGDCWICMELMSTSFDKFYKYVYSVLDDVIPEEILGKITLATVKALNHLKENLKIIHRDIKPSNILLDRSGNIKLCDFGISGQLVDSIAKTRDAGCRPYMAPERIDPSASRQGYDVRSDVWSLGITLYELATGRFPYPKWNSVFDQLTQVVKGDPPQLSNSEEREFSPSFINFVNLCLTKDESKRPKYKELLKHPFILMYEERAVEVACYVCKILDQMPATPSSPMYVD
# Method: as §1
# PKD2 = PKD2 (Homo sapiens (Human), UniProt Q9BZL6); details: H929 live cell
# Method: as §1
# PAN3 = PAN3 (Homo sapiens (Human), UniProt Q58A45); details: H929 live cell
# Method: as §1
# NEK4 = NEK4 (Homo sapiens (Human), UniProt P51957); details: H929 live cell
# Method: as §1
# NuaK2 = NuaK2 (Homo sapiens (Human), UniProt Q9H093); details: H929 live cell
# Chain of NuaK2 (Q9H093 whole entry): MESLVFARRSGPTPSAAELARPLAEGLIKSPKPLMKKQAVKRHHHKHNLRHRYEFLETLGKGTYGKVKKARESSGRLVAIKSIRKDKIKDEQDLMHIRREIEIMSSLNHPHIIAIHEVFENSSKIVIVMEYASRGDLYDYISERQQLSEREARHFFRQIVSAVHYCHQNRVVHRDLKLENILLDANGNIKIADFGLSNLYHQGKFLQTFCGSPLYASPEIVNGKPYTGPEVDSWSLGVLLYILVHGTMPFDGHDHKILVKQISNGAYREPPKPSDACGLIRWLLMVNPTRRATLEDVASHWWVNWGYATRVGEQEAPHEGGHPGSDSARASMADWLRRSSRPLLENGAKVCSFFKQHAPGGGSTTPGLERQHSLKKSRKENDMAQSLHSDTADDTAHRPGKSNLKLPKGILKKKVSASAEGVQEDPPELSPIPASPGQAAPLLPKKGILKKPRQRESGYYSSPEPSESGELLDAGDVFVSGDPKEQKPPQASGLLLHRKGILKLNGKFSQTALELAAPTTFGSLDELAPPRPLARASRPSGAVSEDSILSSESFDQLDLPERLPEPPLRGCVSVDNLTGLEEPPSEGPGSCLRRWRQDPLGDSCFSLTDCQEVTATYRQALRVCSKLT
# Method: as §1
# MAP3K2 = MAP3K2 (Homo sapiens (Human), UniProt Q9Y2U5); details: H929 live cell
# Chain of MAP3K2 (Q9Y2U5 whole entry): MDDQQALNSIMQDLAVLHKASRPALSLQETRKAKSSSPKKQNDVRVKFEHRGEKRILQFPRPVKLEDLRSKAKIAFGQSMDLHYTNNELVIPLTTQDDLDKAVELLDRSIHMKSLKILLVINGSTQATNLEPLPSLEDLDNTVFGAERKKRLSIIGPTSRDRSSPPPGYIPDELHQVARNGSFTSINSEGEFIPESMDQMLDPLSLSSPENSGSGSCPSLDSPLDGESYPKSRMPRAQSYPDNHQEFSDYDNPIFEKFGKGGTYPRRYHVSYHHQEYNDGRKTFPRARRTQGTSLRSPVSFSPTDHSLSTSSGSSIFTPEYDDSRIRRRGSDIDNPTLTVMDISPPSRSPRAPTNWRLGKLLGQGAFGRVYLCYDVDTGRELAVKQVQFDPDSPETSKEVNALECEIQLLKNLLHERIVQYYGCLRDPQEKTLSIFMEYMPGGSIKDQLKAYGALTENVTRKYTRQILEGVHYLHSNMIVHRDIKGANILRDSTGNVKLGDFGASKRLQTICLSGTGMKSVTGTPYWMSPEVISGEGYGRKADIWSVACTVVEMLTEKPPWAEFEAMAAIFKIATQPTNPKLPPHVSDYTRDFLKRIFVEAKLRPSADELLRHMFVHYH
# Method: as §1
# PEK = PEK (Homo sapiens (Human), UniProt Q9NZJ5); details: H929 live cell
# Method: as §1
# [1] = range class, read-out: % inhibition
structure (smiles),measurement,setting,value
"COc1cc(NS(=O)(=O)C2CC2)ccc1-c1cnc(N)c(-c2ccc3c(c2)CCNC3=O)c1 [Compound I-50, N-(4-(6-amino-5-(1-oxo-1,2,3,4-tetrahydroisoquinolin-6-yl)pyridin-3-yl)-3-methoxyphenyl) cyclopropanesulfonamide]",% inhibition,"MAP2K1, MAP2K2",0.0%
same,inhibition at 10 µM,ZAK; [1],0%
same,inhibition at 10 µM,ZAK; read-out: inhibition (10 μM),6.6%
same,inhibition at 10 µM,KHS1; [1],75 to 90%
same,inhibition at 10 µM,KHS1; read-out: inhibition (10 μM),77.8%
same,inhibition at 10 µM,SMG1; [1],0%
same,inhibition at 10 µM,SMG1; read-out: inhibition (10 μM),30.8%
same,inhibition at 10 µM,AKT1; [1],0%
same,inhibition at 10 µM,AKT1; read-out: inhibition (10 μM),2.1%
same,inhibition at 10 µM,JAK1 domain1; [1],0%
same,inhibition at 10 µM,JAK1 domain1; read-out: inhibition (10 μM),-19.8%
same,inhibition at 10 µM,IRAK1; [1],50 to 75%
same,inhibition at 10 µM,IRAK1; read-out: inhibition (10 μM),51.2%
same,inhibition at 10 µM,MST1; [1],> 90%
same,inhibition at 10 µM,MST1; read-out: inhibition (10 μM),97.5%
same,inhibition at 10 µM,IRE1; [1],0%
same,inhibition at 10 µM,IRE1; read-out: inhibition (10 μM),-8.7%
same,inhibition at 10 µM,JAK1 domain2; [1],0%
same,inhibition at 10 µM,JAK1 domain2; read-out: inhibition (10 μM),-23.3%
same,% inhibition,"MST1, MST2",>90%
same,inhibition (10 μM),"MST1, MST2",98.7%
same,% inhibition,"JNK1, JNK2, JNK3",0.0%
same,inhibition (10 μM),"JNK1, JNK2, JNK3",26.8%
same,inhibition at 10 µM,ULK1; [1],0%
same,inhibition at 10 µM,ULK1; read-out: inhibition (10 μM),28.8%
same,inhibition at 10 µM,RSK2 domain1; [1],0%
same,inhibition at 10 µM,RSK2 domain1; read-out: inhibition (10 μM),21%
same,% inhibition,PITSLRE,0.0%
same,inhibition (10 μM),PITSLRE,−27.6%
same,inhibition at 10 µM,GCK; [1],> 90%
same,inhibition at 10 µM,GCK; read-out: inhibition (10 μM),95.2%
same,% inhibition,"Wnk1, Wnk2, Wnk3",0.0%
same,inhibition (10 μM),"Wnk1, Wnk2, Wnk3",15.9%
same,inhibition at 10 µM,ACK; [1],0%
same,inhibition at 10 µM,ACK; read-out: inhibition (10 μM),11.3%
same,% inhibition,"NEK6, NEK7",0.0%
same,inhibition (10 μM),"NEK6, NEK7",−54.5%
same,inhibition at 10 µM,MAP3K1; [1],75 to 90%
same,inhibition at 10 µM,MAP3K1; read-out: inhibition (10 μM),86.7%
same,inhibition at 10 µM,STLK6; [1],0%
same,inhibition at 10 µM,STLK6; read-out: inhibition (10 μM),-15%
same,inhibition at 10 µM,MARK4; [1],0%
same,inhibition at 10 µM,MARK4; read-out: inhibition (10 μM),6.8%
same,inhibition at 10 µM,SRPK2; [1],0%
same,inhibition at 10 µM,SRPK2; read-out: inhibition (10 μM),1.8%
same,inhibition at 10 µM,p70S6K; [1],0%
same,inhibition at 10 µM,p70S6K; read-out: inhibition (10 μM),2.4%
same,inhibition at 10 µM,MAP3K5; [1],0%
same,inhibition at 10 µM,MAP3K5; read-out: inhibition (10 μM),27.5%
same,inhibition at 10 µM,p70S6Kb; [1],0%
same,inhibition at 10 µM,p70S6Kb; read-out: inhibition (10 μM),14%
same,inhibition at 10 µM,PRPK; [1],0%
same,inhibition at 10 µM,PRPK; read-out: inhibition (10 μM),-23.6%
same,inhibition at 10 µM,MAP2K4; [1],35 to 40%
same,inhibition at 10 µM,MAP2K4; read-out: inhibition (10 μM),37.5%
same,inhibition at 10 µM,PKD2; [1],50 to 75%
same,inhibition at 10 µM,PKD2; read-out: inhibition (10 μM),51.5%
same,inhibition at 10 µM,PAN3; [1],0%
same,inhibition at 10 µM,PAN3; read-out: inhibition (10 μM),14.3%
same,inhibition at 10 µM,NEK4; [1],0%
same,inhibition at 10 µM,NEK4; read-out: inhibition (10 μM),25.1%
same,inhibition at 10 µM,NuaK2; [1],35 to 40%
same,inhibition at 10 µM,NuaK2; read-out: inhibition (10 μM),40.8%
same,inhibition at 10 µM,MAP3K2; [1],0%
same,inhibition at 10 µM,MAP3K2; read-out: inhibition (10 μM),-39.1%
same,inhibition at 10 µM,PEK; [1],0%
same,inhibition at 10 µM,PEK; read-out: inhibition (10 μM),7.9%
"Nc1ncc(-c2ccc(NS(=O)(=O)C3CC3)cc2F)cc1-c1ccc2c(c1)CCNC2=O [Compound I-51, N-(4-(6-amino-5-(1-oxo-1,2,3,4-tetrahydroisoquinolin-6-yl)pyridin-3-yl)-3-fluorophenyl) cyclopropanesulfonamide]",% inhibition,"MAP2K1, MAP2K2",0.0%
same,inhibition at 10 µM,ZAK; [1],50 to 75%
same,inhibition at 10 µM,ZAK; read-out: inhibition (10 μM),58.3%
same,inhibition at 10 µM,KHS1; [1],50 to 75%
same,inhibition at 10 µM,KHS1; read-out: inhibition (10 μM),72.7%
same,inhibition at 10 µM,SMG1; [1],50 to 75%
same,inhibition at 10 µM,SMG1; read-out: inhibition (10 μM),55.8%
same,inhibition at 10 µM,AKT1; [1],0%
same,inhibition at 10 µM,AKT1; read-out: inhibition (10 μM),-15.2%
same,inhibition at 10 µM,JAK1 domain1; [1],0%
same,inhibition at 10 µM,JAK1 domain1; read-out: inhibition (10 μM),-8.2%
same,inhibition at 10 µM,IRAK1; [1],50 to 75%
same,inhibition at 10 µM,IRAK1; read-out: inhibition (10 μM),65%
same,inhibition at 10 µM,MST1; [1],> 90%
same,inhibition at 10 µM,MST1; read-out: inhibition (10 μM),96.3%
same,inhibition at 10 µM,IRE1; [1],0%
same,inhibition at 10 µM,IRE1; read-out: inhibition (10 μM),-43.1%
same,inhibition at 10 µM,JAK1 domain2; [1],0%
same,inhibition at 10 µM,JAK1 domain2; read-out: inhibition (10 μM),-6.4%
same,% inhibition,"MST1, MST2",>90%
same,inhibition (10 μM),"MST1, MST2",98.4%
same,% inhibition,"JNK1, JNK2, JNK3",0.0%
same,inhibition (10 μM),"JNK1, JNK2, JNK3",29.3%
same,inhibition at 10 µM,ULK1; [1],35 to 40%
same,inhibition at 10 µM,ULK1; read-out: inhibition (10 μM),40%
same,inhibition at 10 µM,RSK2 domain1; [1],35 to 40%
same,inhibition at 10 µM,RSK2 domain1; read-out: inhibition (10 μM),49.9%
same,% inhibition,PITSLRE,0.0%
same,inhibition (10 μM),PITSLRE,−20.2%
same,inhibition at 10 µM,GCK; [1],> 90%
same,inhibition at 10 µM,GCK; read-out: inhibition (10 μM),93.9%
same,% inhibition,"Wnk1, Wnk2, Wnk3",0.0%
same,inhibition (10 μM),"Wnk1, Wnk2, Wnk3",0.2%
same,inhibition at 10 µM,ACK; [1],0%
same,inhibition at 10 µM,ACK; read-out: inhibition (10 μM),-39%
same,% inhibition,"NEK6, NEK7",0.0%
same,inhibition (10 μM),"NEK6, NEK7",−63.6%
same,inhibition at 10 µM,MAP3K1; [1],> 90%
same,inhibition at 10 µM,MAP3K1; read-out: inhibition (10 μM),95.8%
same,inhibition at 10 µM,STLK6; [1],0%
same,inhibition at 10 µM,STLK6; read-out: inhibition (10 μM),-15%
same,inhibition at 10 µM,MARK4; [1],0%
same,inhibition at 10 µM,MARK4; read-out: inhibition (10 μM),22.2%
same,inhibition at 10 µM,SRPK2; [1],0%
same,inhibition at 10 µM,SRPK2; read-out: inhibition (10 μM),-41%
same,inhibition at 10 µM,p70S6K; [1],0%
same,inhibition at 10 µM,p70S6K; read-out: inhibition (10 μM),-21.6%
same,inhibition at 10 µM,MAP3K5; [1],0%
same,inhibition at 10 µM,MAP3K5; read-out: inhibition (10 μM),16.3%
same,inhibition at 10 µM,p70S6Kb; [1],0%
same,inhibition at 10 µM,p70S6Kb; read-out: inhibition (10 μM),5.5%
same,inhibition at 10 µM,PRPK; [1],0%
same,inhibition at 10 µM,PRPK; read-out: inhibition (10 μM),-47.4%
same,inhibition at 10 µM,MAP2K4; [1],35 to 40%
same,inhibition at 10 µM,MAP2K4; read-out: inhibition (10 μM),44.2%
same,inhibition at 10 µM,PKD2; [1],50 to 75%
same,inhibition at 10 µM,PKD2; read-out: inhibition (10 μM),73.2%
same,inhibition at 10 µM,PAN3; [1],0%
same,inhibition at 10 µM,PAN3; read-out: inhibition (10 μM),-39.1%
same,inhibition at 10 µM,NEK4; [1],0%
same,inhibition at 10 µM,NEK4; read-out: inhibition (10 μM),25.8%
same,inhibition at 10 µM,NuaK2; [1],35 to 40%
same,inhibition at 10 µM,NuaK2; read-out: inhibition (10 μM),45.1%
same,inhibition at 10 µM,MAP3K2; [1],0%
same,inhibition at 10 µM,MAP3K2; read-out: inhibition (10 μM),-11.2%
same,inhibition at 10 µM,PEK; [1],0%
same,inhibition at 10 µM,PEK; read-out: inhibition (10 μM),-16.3%
